Assay results from US20040029891A1, “Use of PDE5 inhibitors in the treatment of polycystic ovary syndrome” (Pfizer Inc., priority 2002, published 2004).

What was measured:
[1] = test system: cattle; assay: Uterine horn histology (endometrial epithelial thickness) in cattle; type: in vivo; conditions: intra-vaginally twice daily, 30 days, relative to control animals (FIG. 4)
Experimental: Oestrous was synchronised using two intramuscular injections of PGF2a (Lutalyse™) administered 11 days apart.
The pyrazolopyrimidinone PDE V inhibitor was administered intra-vaginally twice daily from day −3 of oestrus until day 6 of the following oestrus (30 days in total). Blood samples were collected daily, plasma was prepared as soon as possible and stored at −20° C. and then analysed for progesterone.
At the completion of the study (ie day 6 of the second oestrous period) the cattle were euthanised and the reproductive tract collected. A cross section of the left and right horns of each uterus was collected and stored in 10% Formalin and ten analysed histologically.

[2] = test system: ob/ob mice; assay: Plasma glucose in ob/ob mice, 5 day dosing; type: in vivo, mouse; conditions: summary in words
Experimental: (§1) The selective pyrazolopyrimidinone PDEV inhibitor compounds to be tested were solubilized in 10% DMSO/0.1% pluronics and dosed via oral gavage using mouse oral feeding needles (20 gauge, Popper & Sons, Inc., New Hyde Park, N.Y.). A volume of 4 ml/kg weight was administered for each dose. Compounds were tested at doses ranging from 1-50 mg/kg. Alternatively, the test selective pyrazopyrimidinone PDEV inhibitor compound was administered in the drinking water and found to produce similar reductions in plasma glucose and triglycerides to the reductions observed for the same compound when administered by oral gavage. […]
(§2) Mice were allowed to acclimate to the Pfizer animal facilities for 1 week prior to the start of the study. On day one, retro-orbital blood samples were obtained and plasma glucose was determined as described hereinafter. […] Body weight was measured on days 1 and 5 of the study, and food consumption was assessed over the 5 day period.
(§3) On the morning of the last day of the study mice were dosed with test pyrazolopyrimidinone PDEV compound or vehicle at approximately 8:00 am. […] Plasma samples were stored at −80° C. until analyzed.
(§4) Plasma glucose and triglycerides were measured using the Alcyon Clinical Chemistry Analyzer (Abbott Laboratories, Abbott Park, Ill.) using kits supplied by Abbott. […]

[3] = test system: ob/ob mice; assay: Plasma triglycerides in ob/ob mice, 5 day dosing; type: in vivo, mouse; conditions: summary in words
Experimental: as §1, §2, §3, §4

CCCOc1ccc(S(=O)(=O)N2CCN(CC)CC2)cc1-c1nc2c(CC)n(Cc3ccccn3)nc2c(=O)[nH]1 [PDE5 A, 3-ethyl-5-[5-(4-ethylpiperazin-1-ylsulphonyl)-2-n-propoxyphenyl]-2-(pyridin-2-yl)methyl-2,6-dihydro-7H-pyrazolo[4,3-d]pyrimidin-7-one]
endometrial epithelial thickness [1]: increases endometrial epithelial thickness

CCCc1nn(C)c2c(=O)[nH]c(-c3cc(S(=O)(=O)N4CCN(C)CC4)ccc3OCC)nc12 [PDE5 C, 5-[2-ethoxy-5-(4-methyl-1-piperazinylsulphonyl)phenyl]-1-methyl-3-n-propyl-1,6-dihydro-7H-pyrazolo[4,3-d]pyrimidin-7-one]
plasma glucose levels [2]: reduce | serum triglyceride levels [3]: reduce
